From patent US11999782B2, “Therapeutic agents for the treatment of diseases associated with undesired cell proliferation” (Fundació Privada Institutció Catalana de Recerca I Estudis …, priority 2009, dated 2024)

System: LIF expression in PCTC cells
Experiment: LIF mRNA by qRT-PCR in PCTCs of human GBM
Format: cell-based
Details: PCTCs from 11 human GBMs, 100 pM TGFβ1, 3 hours, medium without serum
Experimental: FIG. 3. TGFβ induces the expression of LIF in PCTC and GBM neurospheres. (A) PCTC cells of the 11 samples of the indicated GEM (GBM1-11) were treated with 100 pM TGFβ1 for 3 hours in medium without serum or left untreated, and the expression levels of LIF were determined by means of qRT-PCR. The g-actin was determined as an internal normalization control. (B) GBM neurosphere cells were treated as in A and the expression levels of LIF were determined by means of qRT-PCR as in A. (C) GBM neurospheres were incubated with 100 pM TGFβ1 and/or 2 μM TβRI inhibitor for 3 hours in medium without serum and the mRNA levels of LIF were determined by means of qRT-PCR as in A. (D) GBM1 neurospheres were incubated with 100 pM TGFβ1, TGFβ2 and TGFβ3 for 3 hours in medium without serum and the mRNA levels of LIF were determined by means of qRT-PCR as in A. (E) The levels of LIF protein secreted were determined by means of ELISA in GBM1 neurospheres after 48 hours of treatment with 100 pM TGFβ1. […]
qRT-PCR was performed using Taqman probes from Applied Biosystems, according to the manufacturer's recommendations. The reactions were carried out in a ABI 7000 sequence detector (Perkin Elmer) and the results were expressed as the fold change calculated by means of the DDCt method relative to the control sample or the first quantified sample. […]

Substance: TGFβ: TGFβ1 (R&D Systems), used at 100 pM according to the figure legends
- levels of LIF mRNA in PCTCs: induced LIF in all the PCTCs assayed
